Assay results from the supplement of paper PMC10331698.
± gives the standard deviation of the averaged measurements.

Key:
Assay in all cases: level (log10 ratio to DMSO vehicle control); higher = higher biomarker level / cell amount than vehicle control
Methotrexate = compound: CN(Cc1cnc2nc(N)nc(N)c2n1)c1ccc(C(=O)N[C@@H](CCC(=O)O)C(=O)O)cc1 [Methotrexate]; settings: in DMSO
Description: (§1)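 BioMAP Diversity Plus panel of 12 human primary cell co-culture systems (3C, 4H, LPS, SAg, BT, BF4T, BE3C, CASM3C, HDF3CGF, KF3CT, MyoF, Mphg). Compounds were added 1 h before stimulation and left for 24 h (MyoF 48 h; BT 72 h for soluble read-outs or 6 d for IgG). Biomarkers were read by ELISA, cytotoxicity by SRB, PBMC viability and proliferation by Alamar Blue. Each well value was divided by the mean of 8 DMSO control wells on the same plate and log10 transformed; duplicate blinded samples were tested at 4 concentrations.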

[1] = compound: C=C(C)C(=O)OCC(F)(F)C(F)(F)C(F)(F)F [2,2,3,3,4,4,4-Heptafluorobutyl methacrylate]; settings: in DMSO
Description: as §1

[2] = compound: OCC(F)(F)C(F)(F)C(F)(F)C(F)(F)C(F)(F)C(F)(F)C(F)(F)C(F)(F)CO [1H,1H,10H,10H-Perfluorodecane-1,10-diol]; settings: in DMSO
Description: as §1

[3] = compound: FC(F)(F)COC(OCC(F)(F)F)OCC(F)(F)F [tris(Trifluoroethoxy)methane]; settings: in DMSO
Description: as §1

[4] = compound: OCCC(F)(F)C(F)(F)C(F)(F)C(F)(F)C(F)(F)C(F)(F)C(F)(F)C(F)(F)F [8:2 Fluorotelomer alcohol]; settings: 6700 nM; in DMSO
Description: as §1

Perfluoropinacol = compound: OC(C(F)(F)F)(C(F)(F)F)C(O)(C(F)(F)F)C(F)(F)F [Perfluoropinacol]; settings: in DMSO
Description: as §1

[5] = compound: Cc1ccc(S(=O)(=O)OCC(F)(F)C(F)(F)C(F)(F)C(F)(F)C(F)(F)C(F)F)cc1 [1H,1H,7H-Perfluoroheptyl 4-methylbenzenesulfonate]; settings: in DMSO
Description: as §1

| Test System | level (log10) (Methotrexate; 1500 nM) | level (log10) (Methotrexate; 4400 nM) | level (log10) (Methotrexate; 13000 nM) | level (log10) (Methotrexate; 40000 nM) | level (log10) ([1]; 6700 nM) | level (log10) ([1]; 20000 nM) | level (log10) ([1]; 60000 nM) | level (log10) ([2]; 6700 nM) | level (log10) ([2]; 20000 nM) | level (log10) ([2]; 60000 nM) | level (log10) ([3]; 6700 nM) | level (log10) ([3]; 20000 nM) | level (log10) ([3]; 60000 nM) | level (log10) [4] | level (log10) (Perfluoropinacol; 6700 nM) | level (log10) (Perfluoropinacol; 20000 nM) | level (log10) ([5]; 6700 nM) | level (log10) ([5]; 20000 nM) | level (log10) ([5]; 60000 nM) |
| --- | --- | --- | --- | --- | --- | --- | --- | --- | --- | --- | --- | --- | --- | --- | --- | --- | --- | --- | --- |
| MyoF:CD106/VCAM-1 | 0.0165 ± 0.015 | -0.0045 ± 0.013 | 0.038 ± 0.024 | 0.0095 ± 0.0092 | 0.0045 ± 0.019 | -0.006 ± 0.0057 | 0.0035 ± 0.025 | 0.0025 ± 0.021 | -0.0025 ± 0.025 | -0.19 | -0.021 ± 0.034 | -0.03 ± 0.028 | -0.034 ± 0.0057 | -0.026 ± 0.016 | -0.013 ± 0.011 | -0.042 ± 0.0085 | 0.004 ± 0.0014 | 0.023 ± 0.0014 | 0.0135 ± 0.0021 |
| CASM3C:CD142/Tissue Factor | 0.0505 ± 0.005 | 0.0195 ± 0.049 | 0.0265 ± 0.042 | 0.0305 ± 0.026 | -0.006 ± 0.021 | 0 ± 0.038 | 0.0045 ± 0.022 | -0.0275 ± 0.015 | -0.02 ± 0.0042 | -0.033 | 0.0185 ± 0.047 | -0.011 ± 0.0085 | -0.0275 ± 0.016 | -0.011 ± 0.014 | -0.0515 ± 0.022 | -0.0235 ± 0.06 | -0.038 ± 0.014 | -0.057 ± 0.047 | -0.0205 ± 0.03 |
| HDF3CGF:MMP-1 | -0.0085 ± 0.005 | -0.0135 ± 0.0021 | 0.0005 ± 0.0021 | 0.0065 ± 0.028 | 0 ± 0.023 | 0.0015 ± 0.0064 | -0.0005 ± 0.016 | 0.0025 ± 0.00071 | 0.005 ± 0.018 | -0.299 | -0.005 ± 0.0099 | -0.005 ± 0.0014 | 0 ± 0.0085 | 0.034 ± 0.0014 | 0.024 ± 0.023 | 0.017 ± 0.014 | 0.024 ± 0.0014 | 0.0535 ± 0.016 | 0.066 ± 0.0014 |
| MyoF:Collagen I | -0.0115 ± 0.049 | -0.01 ± 0.059 | 0.01 ± 0.035 | 0.004 ± 0.038 | 0.0055 ± 0.013 | 0.001 ± 0.021 | 0.018 ± 0.027 | -0.0105 ± 0.015 | -0.0275 ± 0.013 | -0.109 | -0.006 ± 0.0085 | -0.013 ± 0.017 | -0.01 ± 0.0014 | -0.0025 ± 0.021 | 0.044 | -0.006 ± 0.0099 | -0.001 ± 0.0028 | 0.019 ± 0.0099 | 0.001 ± 0.016 |
| lMphg:CD106/VCAM-1 | -0.001 ± 0.025 | -0.016 ± 0.021 | -0.002 ± 0.0057 | -0.007 ± 0.021 | 0.0005 ± 0.0021 | 0.005 ± 0.04 | 0.0115 ± 0.026 | -0.008 ± 0.0014 | -0.0075 ± 0.029 | -0.802 | 0.0065 ± 0.0035 | 0.023 ± 0.0099 | -0.0145 ± 0.0092 | 0.0055 ± 0.012 | 0.0045 ± 0.0064 | -0.077 ± 0.023 | -0.0105 ± 0.029 | 0.0045 ± 0.0021 | 0 ± 0.0071 |
| lMphg:CCL2/MCP-1 | 0.0115 ± 0.03 | 0.008 ± 0.035 | -0.0105 ± 0.033 | -0.0055 ± 0.021 | -0.0335 ± 0.028 | -0.012 ± 0.0099 | -0.0115 ± 0.028 | -0.0125 ± 0.016 | -0.0145 ± 0.005 | -0.653 | -0.01 ± 0.023 | 0.0005 ± 0.011 | 0.018 ± 0.035 | 0.0165 ± 0.019 | 0.0265 ± 0.028 | -0.148 ± 0.0014 | -0.033 ± 0.0014 | -0.0345 ± 0.015 | -0.0055 ± 0.026 |
| 3C:CD54/ICAM-1 | 0.0065 ± 0.0064 | -0.0085 ± 0.005 | 0.0045 ± 0.013 | -0.002 ± 0.0085 | 0.002 ± 0.0028 | 0.007 ± 0.0042 | 0.0135 ± 0.005 | -0.01 ± 0.0014 | -0.0035 ± 0.005 | -0.006 | 0.004 ± 0.0042 | -0.0105 ± 0.0064 | -0.0145 ± 0.00071 | -0.014 ± 0.0014 | 0.0055 ± 0.0021 | -0.0005 ± 0.021 | 0.0085 ± 0.0021 | -0.005 ± 0.0085 | -0.01 ± 0.02 |
| CASM3C:HLA-DR | 0.0795 ± 0.0021 | -0.004 ± 0.068 | -0.079 ± 0.013 | 0.0375 ± 0.015 | -0.0035 ± 0.0078 | 0.0125 ± 0.0021 | 0.0135 ± 0.015 | -0.0185 ± 0.0078 | -0.0275 ± 0.0064 | -0.065 | -0.0115 ± 0.0064 | -0.007 | -0.0135 ± 0.023 | -0.022 ± 0.018 | -0.0885 ± 0.042 | -0.207 | -0.009 ± 0.0028 | -0.021 ± 0.0014 | -0.002 ± 0.0071 |
| HDF3CGF:CXCL11/I-TAC | -0.0095 ± 0.013 | -0.0105 ± 0.033 | -0.008 ± 0.023 | -0.018 ± 0.05 | -0.0085 ± 0.023 | -0.01 ± 0.034 | -0.0405 ± 0.018 | 0.013 ± 0.0042 | -0.031 ± 0.025 | -0.497 | -0.01 ± 0.0014 | -0.0125 ± 0.021 | -0.0145 ± 0.026 | -0.04 ± 0.024 | -0.062 ± 0.041 | -0.234 ± 0.015 | -0.005 ± 0.027 | 0.036 ± 0.057 | -0.001 ± 0.092 |
| 3C:CCL2/MCP-1 | 0.0505 ± 0.0064 | -0.013 ± 0.027 | 0.0065 ± 0.0078 | 0.028 ± 0.028 | -0.0015 ± 0.0035 | -0.009 ± 0.0071 | 0.01 ± 0.027 | -0.0015 ± 0.005 | 0.0055 ± 0.00071 | 0.018 | -0.0065 ± 0.019 | -0.0115 ± 0.022 | 0.021 ± 0.048 | -0.0025 ± 0.0021 | 0.092 ± 0.013 | 0.0445 ± 0.012 | -0.011 ± 0.0028 | -0.0075 ± 0.0021 | -0.0475 ± 0.011 |
| lMphg:M-CSF | -0.03 ± 0.034 | -0.013 ± 0.025 | -0.0295 ± 0.026 | -0.013 ± 0.085 | -0.011 ± 0.0085 | -0.02 ± 0.02 | -0.021 ± 0.0071 | -0.0155 ± 0.005 | -0.031 | -0.097 | -0.012 ± 0.0071 | -0.025 ± 0.035 | -0.0135 ± 0.029 | -0.0345 ± 0.021 | -0.0155 ± 0.04 | -0.0825 ± 0.013 | -0.0295 ± 0.005 | -0.0305 ± 0.0035 | -0.016 |
| KF3CT:IL-1alpha | -0.0145 ± 0.013 | -0.0225 ± 0.032 | -0.002 ± 0.052 | -0.0145 ± 0.039 | -0.005 ± 0.0071 | -0.007 ± 0.014 | -0.0005 ± 0.016 | 0.005 ± 0.027 | -0.01 ± 0.021 | 0.109 | -0.0045 ± 0.0078 | -0.0055 ± 0.0092 | 0.0055 ± 0.019 | -0.0545 ± 0.029 | 0.0765 ± 0.028 | 0.155 ± 0.032 | -0.053 ± 0.024 | -0.01 ± 0.024 | 0.013 ± 0.038 |
| BE3C:SRB | -0.0035 ± 0.0064 | -0.009 ± 0.0014 | -0.0025 ± 0.00071 | 0.001 ± 0.014 | -0.003 ± 0.011 | -0.0095 ± 0.0064 | -0.001 ± 0.0071 | -0.003 | -0.0105 ± 0.00071 | -0.024 | -0.002 ± 0.0028 | 0.005 ± 0.0057 | -0.002 ± 0.0085 | -0.0075 ± 0.0021 | -0.0115 ± 0.0035 | -0.0285 ± 0.00071 | -0.006 ± 0.0028 | -0.008 ± 0.0042 | -0.0145 ± 0.0035 |
| 3C:CD106/VCAM-1 | -0.0115 ± 0.044 | -0.005 ± 0.021 | 0.0055 ± 0.035 | -0.0135 ± 0.026 | 0.0145 ± 0.029 | 0.007 ± 0.016 | 0.017 ± 0.011 | -0.023 ± 0.0071 | -0.0225 ± 0.0021 | -0.052 | -0.002 ± 0.016 | -0.0045 ± 0.019 | 0.0095 ± 0.0078 | -0.035 ± 0.061 | -0.006 ± 0.02 | -0.0385 ± 0.018 | -0.0205 ± 0.0064 | -0.0085 ± 0.0064 | -0.037 ± 0.025 |
